pIC50: −log10 of the molar value.
Target: T1, ENL YEATS domain (6×HIS ENL YEATS Domain) binding to H3K9cr peptide (Homo sapiens, UniProt Q03111)
T1 construct: aa1-150; EpiCypher, 15-0069; purchased EpiCypher 15-0069
T1 sequence (Q03111 1-150): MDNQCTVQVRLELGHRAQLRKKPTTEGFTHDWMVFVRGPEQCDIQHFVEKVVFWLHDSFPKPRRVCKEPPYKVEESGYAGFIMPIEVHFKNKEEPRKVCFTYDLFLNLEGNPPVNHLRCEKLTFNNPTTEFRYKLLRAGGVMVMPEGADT
Assay: TR-FRET ENL Screening Assay, FRET Assay Protocol 1
Conditions: H3K9cr peptide (aa1-20)
Experimental: Compounds of the invention were dissolved in DMSO at a concentration of 3 mM with subsequent dilutions in assay buffer (50 mM HEPES PH7.0, 150 mM NaCl, 0.05% BSA, 0.2% Pluronic F-127) such that the assay contained 1% DMSO. […] Low control (LC) wells received 5 uL of assay buffer instead of ENL protein. […] Compound concentration response curves were performed in duplicate over the concentration range of 0.15 nM-30 uM. The response at each compound concentration minus the LC value was converted to percent inhibition of the vehicle control group response (HC-LC). The relationship between the % inhibition and the compound concentration was analyzed using a four parameter logistic equation to estimate lower and upper asymptotes, the compound concentration producing 50% inhibition (IC50 value) and the slope at the mid-point location.

Compound	pIC50
COCCn1cc(-c2ccc(C(=O)Nc3cc4[nH]c(CN5CCC[C@@H]5C)cc4cn3)nc2)cn1 [Example 71]	5.98
C[C@H]1CCCN1Cc1cc2cnc(NC(=O)c3ccc(-n4ccnc4)cc3)cc2[nH]1 [Example 54]	6.67
C[C@H]1CCCN1Cc1cc2cnc(NC(=O)c3cc4cnccc4cn3)cc2[nH]1 [Example 78]	6.84
CC(c1ccc(C(=O)Nc2cc3[nH]c(CN4CCC[C@@H]4C)cc3cn2)cc1)c1ccccn1 (stereo partly drawn) [Example 10, N-(2-[[(2S)-2-methylpyrrolidin-1-yl]methyl]-1H-pyrrolo[3,2-c]pyridin-6-yl)-4-[1-(pyridin-2-yl)ethyl]benzamide]	5.75
C[C@H]1CCCN1Cc1cc2cnc(NC(=O)c3ccc(-c4cn(C)nn4)cc3F)cc2[nH]1 [Example 33]	6.38
C[C@H]1CCCN1Cc1cc2cnc(NC(=O)c3nc4cc(N)ccc4[nH]3)cc2[nH]1 [Example 64]	5.87
C[C@H]1CCCN1Cc1cc2cnc(NC(=O)c3ncc(-c4cn[nH]c4)cc3F)cc2[nH]1 [Example 74]	5.96
CC(c1ccc(C(=O)Nc2cc3[nH]c(CN4CCC[C@@H]4C)cc3cn2)cc1)c1cccnc1 (stereo partly shown) [compound 30]	6.12
C[C@H]1CCCN1Cc1cc2cnc(NC(=O)c3ccc4onc(C5CC5)c4c3)cc2[nH]1 [Example 53, 3-cyclopropyl-N-(2-[[(2S)-2-methylpyrrolidin-1-yl]methyl]-1H-pyrrolo[3,2-c]pyridin-6-yl)-1,2-benzoxazole-5-carboxamide]	6.38
Cc1n[nH]c2ccc(C(=O)Nc3cc4[nH]c(CN5CCC[C@@H]5C)c(F)c4cn3)cc12 [Example 107, N-(3-fluoro-2-[[(2S)-2-methylpyrrolidin-1-yl]methyl]-1H-pyrrolo[3,2-c]pyridin-6-yl)-3-methyl-1H-indazole-5-carboxamide]	7.03
Cc1n[nH]c2cc(F)c(C(=O)Nc3cnc4cc(CN5CCC[C@@H]5C)[nH]c4c3)cc12 [Example 105, 6-fluoro-3-methyl-N-(2-[[(2S)-2-methylpyrrolidin-1-yl]methyl]-1H-pyrrolo[3,2-b]pyridin-6-yl)-1H-indazole-5-carboxamide]	6.57
Cc1n[nH]cc1-c1ccc(C(=O)Nc2cc3[nH]c(CN4CCC[C@@H]4C)cc3cn2)cc1 [Example 89]	6.30
C[C@H]1CCCN1Cc1cc2cnc(NC(=O)c3ccc(-c4cn[nH]c4)cn3)cc2[nH]1 [Example 77]	6.02
Cc1ccc(-c2ccc(C(=O)Nc3cc4[nH]c(CN5CCC[C@@H]5C)cc4cn3)c(F)c2)nn1 [Example 35]	6.18
C[C@H]1CCCN1Cc1cc2cnc(NC(=O)c3ccc(-n4cnnc4)cc3)cc2[nH]1 [Example 91]	6.15
COc1cc(C(=O)Nc2cc3[nH]c(CN4CCC[C@@H]4C)cc3cn2)c(F)cc1-c1ccn[nH]1 [Example 44]	6.12
C[C@H]1CCCN1Cc1cc2cnc(NC(=O)c3ccc(-c4cnn(C5CC5)c4)cc3)cc2[nH]1 [Example 49]	6.82

More lines, now with the values ahead:

pIC50	Compound
5.66	C[C@@H]1CCN1Cc1cc2cnc(NC(=O)c3ccc4c(cnn4C)c3)cc2[nH]1 [Example 45, 1-methyl-N-(2-[[(2R)-2-methylazetidin-1-yl]methyl]-1H-pyrrolo[3,2-c]pyridin-6-yl)indazole-5-carboxamide]
6.05	Cc1nc2cc(C(=O)Nc3cc4[nH]c(CN5CCC[C@@H]5C)cc4cn3)ccc2o1 [Example 3, 2-methyl-N-(2-[[(2S)-2-methylpyrrolidin-1-yl]methyl]-1H-pyrrolo[3,2-c]pyridin-6-yl)-1,3-benzoxazole-5-carboxamide]
6.62	C[C@H]1CCCN1Cc1cc2cnc(NC(=O)c3ccc4c(cnn4-c4ccncc4)c3)cc2[nH]1 [Example 37, N-(2-[[(2S)-2-methylpyrrolidin-1-yl]methyl]-1H-pyrrolo[3,2-c]pyridin-6-yl)-1-(pyridin-4-yl) indazole-5-carboxamide]
6.58	C[C@H]1CCCN1Cc1cc2cnc(NC(=O)c3ccc4ncccc4c3)cc2[nH]1 [Example 15]
6.77	C[C@H]1CCCN1Cc1cc2cnc(NC(=O)c3ccc4c(N)n[nH]c4c3)cc2[nH]1 [Example 83]
5.92	C[C@H]1CCCN1Cc1cc2cnc(NC(=O)c3ccc(CN)cc3)cc2[nH]1 [Example 81]
6.78	C[C@H]1CCCN1Cc1cc2cnc(NC(=O)c3ccc(-c4cnn(CCO)c4)cc3)cc2[nH]1 [Example 20, 4-[1-(2-hydroxyethyl)pyrazol-4-yl]-N-(2-[[(2S)-2-methylpyrrolidin-1-yl]methyl]-1H-pyrrolo[3,2-c]pyridin-6-yl)benzamide]
6.38	COCCCCn1ncc2cc(C(=O)Nc3cc4[nH]c(CN5CCC[C@@H]5C)cc4cn3)ccc21 [compound 28]
6.29	C[C@H]1CCCN1Cc1cc2cnc(NC(=O)c3ccc4[nH]nnc4c3)cc2[nH]1 [Example 79]
6.06	C[C@H]1CCCN1Cc1cc2cnc(NC(=O)c3ccc(-c4ccnn4C)cc3F)cc2[nH]1 [Example 31]
6.61	Cc1c2ccc(C(=O)Nc3cc4[nH]c(CN5CCC[C@@H]5C)cc4cn3)cc2nn1C [Example 8]
6.24	Cc1nc2ccc(C(=O)Nc3cc4[nH]c(CN5CCC[C@@H]5C)cc4cn3)cc2o1 [Example 4]
5.60	C[C@H]1CCCN1Cc1cc2cnc(NC(=O)c3ccc4c(c3)CCCN4C)cc2[nH]1 [Example 40, 1-methyl-N-(2-[[(2S)-2-methylpyrrolidin-1-yl]methyl]-1H-pyrrolo[3,2-c]pyridin-6-yl)-3,4-dihydro-2H-quinoline-6-carboxamide]
6.67	Cc1nn(C2COC2)c2ccc(C(=O)Nc3cc4[nH]c(CN5CCC[C@@H]5C)cc4cn3)cc12 [Example 100]
6.70	C[C@H]1CCCN1Cc1cc2nnc(NC(=O)c3ccc4c(cnn4C)c3)cc2[nH]1 [compound 19]
6.49	C[C@H]1CCCN1Cc1cc2cnc(NC(=O)c3ccc4c(=O)[nH]ccc4c3)cc2[nH]1 [Example 61]
6.53	C[C@H]1CCCN1Cc1cc2cnc(NC(=O)c3ccc4nc(N)ccc4c3)cc2[nH]1 [Example 58]
6.33	Cc1noc2ccc(C(=O)Nc3cc4[nH]c(CN5CCC[C@@H]5C)cc4cn3)cc12 [Example 2, 3-methyl-N-(2-[[(2S)-2-methylpyrrolidin-1-yl]methyl]-1H-pyrrolo[3,2-c]pyridin-6-yl)-1,2-benzoxazole-5-carboxamide]
6.59	COCC#CCn1ncc2cc(C(=O)Nc3cc4[nH]c(CN5CCC[C@@H]5C)cc4cn3)ccc21 [Example 27, 1-(4-methoxybut-2-yn-1-yl)-N-(2-[[(2S)-2-methylpyrrolidin-1-yl]methyl]-1H-pyrrolo[3,2-c]pyridin-6-yl)indazole-5-carboxamide]
6.90	Cc1nn(C2CS(=O)(=O)C2)c2ccc(C(=O)Nc3cc4[nH]c(CN5CCC[C@@H]5C)cc4cn3)cc12 [Example 101]
6.31	C[C@H]1CCCN1Cc1cc2cnc(NC(=O)c3ccc4nccnc4c3)cc2[nH]1 [Example 38]
6.90	C[C@H]1CCCN1Cc1cc2cnc(NC(=O)c3ccc4c(c3)n(C)c(=O)n4C)cc2[nH]1 [Example 90]
6.39	CC1C(=O)Nc2cc(C(=O)Nc3cc4[nH]c(CN5CCC[C@@H]5C)cc4cn3)ccc21 (stereo partly drawn) [Example 69, 3-methyl-N-(2-[[(2S)-2-methylpyrrolidin-1-yl]methyl]-1H-pyrrolo[3,2-c]pyridin-6-yl)-2-oxo-1,3-dihydroindole-6-carboxamide]

From patent US20230027198A1 (The Rockefeller University, priority 2019, published 2023)
